Patent US10092596B2, “Tungstate treatment of the dysbiosis associated with gastrointestinal inflammation” (THE REGENTS OF THE UNIVERSITY OF CALIFORNIA, priority 2013, dated 2018)
Where two headings read alike, the source gives them in different places.

Key:
nitrate/nitrite = assay: Nitrate/nitrite concentration in the cecal mucus of DSS-treated mice; assay type: in vivo; conditions: AG in drinking water
From the text: Bars represent geometric means±standard error. *, P<0.05; **, P<0.01.
To determine whether the availability of nitrate increases during DSS colitis, the concentration of nitrate/nitrite in the colonic mucus of mock-treated and DSS-treated mice was examined. […] The results supported the idea that the inflammatory host response generates respiratory electron acceptors in the large bowel.
(§1) Since the fitness advantage conferred by nitrate respiration was abrogated in Nos2-deficent mice (FIG. 2), the ability of inhibiting nitrate respiration in vivo was tested by supplementing the drinking water of mice with the iNOS inhibitor aminoguanidine (AG).

[1] = system: E. coli Nissle 1917 and narG napA narZ mutant; assay: Competitive infection of DSS-treated mice with E. coli Nissle 1917 and its nitrate respiration-deficient mutant; assay type: in vivo; conditions: AG in drinking water, five days after infection
Method: Mice were mock-treated or treated with dextran sulfate sodium (DSS) or DSS+aminoguanidine (AG) and infected with equal mixtures of the indicated E. coli strains. Five days after infection, the ratio of wild-type (wt) and mutant recovered from colon contents was determined (competitive index). Bars represent geometric means±standard error.
Next, mock-treated mice (C57BL/6) or mice with DSS-induced colitis were inoculated with an equal mixture of E. coli Nissle 1917 and its isogenic nitrate respiration-deficient mutant (competitive infection design). Wild type and nitrate respiration-deficient mutant strains colonized the intestine of normal mice poorly, but similar numbers of each strain were recovered from colon contents (FIG. 2). […] Thus, nitrate respiration enhanced the fitness of E. coli in the inflamed gut.
as §1

[2] = Inflammation and morbidity in DSS-treated mice infected with LF82; assay type: in vivo, mice (C57BL/6); conditions: AG or tungstate in water, NAC in chow
Method: The development of intestinal inflammation can be followed as described below. The severity of inflammatory changes in the cecum and the colon are assessed by several independent approaches at three, five and seven days after inoculation. First, the relative transcript levels of genes encoding neutrophil chemoattractants (i.e., genes encoding the CXC-chemokines Kc and the Mip2) and iNOS (Nos2) are determined (see, e.g., 62, 64). Second, to monitor, on the protein level, how inflammatory markers increase after DSS treatment, expression levels of iNOS and myeloperoxidase (MPO) are analyzed in protein samples extracted from the colonic mucosa by Western blot using anti-iNOS antibodies (Abcam), anti-MPO antibodies (R&D systems), and anti-tubulin as a loading control (64). Third, concentrations of the neutrophil-specific enzyme MPO in fecal pellets are measured by ELISA. This can serve as an indicator for the degree of neutrophil transmigration into the intestinal lumen over time (6, 42). Finally, pathological changes in the colonic mucosa are assessed through standardized, blinded scoring of formalin-fixed, hematoxylin and eosin-stained sections by a veterinary pathologist (64).

neutrophils [3] = conditions: in vivo; cited from earlier work
neutrophils [4] = conditions: in vitro; cited from earlier work
Tnfa = Tnfa transcript levels in the cecal mucosa of DSS-treated mice (real-time PCR); assay type: in vivo; conditions: conventional mice, 4% DSS for 9 days
From the text: (§2) (13A-C) Conventional mice received 4% DSS alone (DSS) or in combination with sodium tungstate (DSS+Na2WO4) for 9 days. (13D) Germ-free mice received 1% DSS or 1% DSS+Na2WO4 for five days. (13A) Average histopathology score from the cecum.
(§3) This reduction was remarkable, because DSS treatment induces cecal inflammation by a mechanism that is only partially dependent on the presence of microbiota (10). In other words, DSS treatment causes inflammation in germ-free mice, but inflammation is exacerbated by the presence of microbiota. Thus, by inhibiting the microbiota-dependent component of inflammation, one can only expect to achieve a reduction in inflammation, but not a resolution of inflammation. Thus, given the marked pathology observed in DSS-treated germ-free mice (10), the reduction of cecal pathology after tungsten treatment was remarkable.

AIEC strain LF82 = conditions: DSS-treated mice infected with LF82, tungstate in water
Method: Groups of 6 DSS-treated mice (C57BL/6) were provided with water or water supplemented with AG or tungstate and fed regular chow or chow supplemented with NAC. Mice were then inoculated with wild-type LF82 or sterile medium (mock-infection) and organs were collected at three, five and seven days after infection.
In addition, colony forming units (CFU) of E. coli are determined by spreading homogenates of colon contents on plates containing the appropriate antibiotics (all LF82 derivatives are marked with a kanamycin resistance cassette inserted downstream of the lac operon).

Kc [5] = assay: Kc transcript levels in the cecal mucosa of DSS-treated germ-free mice; assay type: in vivo; conditions: 1% DSS, 5 days after the beginning of DSS treatment
Method: as §2
The key experiment to distinguish between these two possibilities is to test whether tungstate treatment reduces inflammation in germ-free mice. To this end, groups of four germ-free mice were treated with 1% DSS, 1% DSS+sodium tungstate, or drinking water without supplementation.

[6] = Body weight in the DSS-colitis model; assay type: in vivo, C57BL/6 mice; conditions: 3% DSS, tungstate 0.2% in drinking water, after 8 days of DSS treatment
From the text: To determine whether the administration of soluble tungsten (W) salts can abolish anaerobic respiration and thus blunt the bloom of Enterobacteriaceae in vivo, a murine model of chemically-induced colitis, the dextran sulfate sodium (DSS) colitis model, was employed. Oral administration of DSS in the drinking water induces a vigorous intestinal inflammatory response that is accompanied by a bloom of commensal Enterobacteriaceae (3). Groups of C57BL/6 mice received DSS-supplemented (2 or 3%) drinking water or received DSS-supplemented (2 or 3%) drinking water with sodium tungstate (0.2%) added. After onset of inflammation (4 days after start of the treatment), mice were intragastrically inoculated with a 1:1 mixture of the E. coli Nissle 1917 wild-type and an isogenic moaA mutant deficient for molybdopterin cofactor biosynthesis. Utilization of these non-pathogenic indicator strains allows a determination of the growth advantage conferred through anaerobic respiration by comparing colonization with the wild-type strain with an anaerobic respiration-deficient mutant (moaA mutant) (3). 5 days after inoculation of mice, animals were euthanized and colonization with the E. coli indicator strains determined by cultivation on selective media (each of the strains is marked with a different antibiotic resistance gene) (FIG. 10). […]

[7] = Histopathology score of the cecum in DSS-treated conventional mice; assay type: in vivo; conditions: 4% DSS for 9 days, blinded scoring
From the text: as §2, §3

[8] = system: E. coli Nissle 1917 wild-type and moaA mutant; assay: DSS colitis model, colonization with E. coli indicator strains (wild-type and moaA mutant, 1:1); assay type: in vivo
From the text: To determine whether the administration of soluble tungsten (W) salts can abolish anaerobic respiration and thus blunt the bloom of Enterobacteriaceae in vivo, a murine model of chemically-induced colitis, the dextran sulfate sodium (DSS) colitis model, was employed. Oral administration of DSS in the drinking water induces a vigorous intestinal inflammatory response that is accompanied by a bloom of commensal Enterobacteriaceae (3). Groups of C57BL/6 mice received DSS-supplemented (2 or 3%) drinking water or received DSS-supplemented (2 or 3%) drinking water with sodium tungstate (0.2%) added. After onset of inflammation (4 days after start of the treatment), mice were intragastrically inoculated with a 1:1 mixture of the E. coli Nissle 1917 wild-type and an isogenic moaA mutant deficient for molybdopterin cofactor biosynthesis. Utilization of these non-pathogenic indicator strains allows a determination of the growth advantage conferred through anaerobic respiration by comparing colonization with the wild-type strain with an anaerobic respiration-deficient mutant (moaA mutant) (3). 5 days after inoculation of mice, animals were euthanized and colonization with the E. coli indicator strains determined by cultivation on selective media (each of the strains is marked with a different antibiotic resistance gene) (FIG. 10).
To further test the efficacy of tungstate treatment, E. coli indicator strains that were either proficient for anaerobic respiration (E. coli Nissle 1917 wild-type) or deficient for nitrate respiration, DMSO respiration, and TMAO respiration due to a mutation in one of the molybdopterin cofactor biosynthesis genes (E. coli Nissle 1917 moaA mutant) were used. Groups of mice with DSS-induced colitis were inoculated with an equal mixture of both E. coli indicator strains (i.e., wild-type and moaA mutant) and received either regular water (vehicle control) or drinking water containing 2 g/l sodium tungstate (Na2WO4×2H2O; Sigma-Aldrich, St. Louis, Mo., USA) to receive a calculated average dose of 130 mg/kg/day (assuming 2.6 ml of water intake per day for each animal). These experiments determined whether anaerobic respiration would provide a fitness advantage upon the E. coli wild-type over the moaA mutant in the inflamed intestine of DSS-treated mice. Furthermore, if tungstate treatment would inhibit anaerobic respiration, these experiments determined whether this fitness advantage would be eliminated and both strains would be recovered at a 1:1 ratio. In other words, the use of E. coli indicator strains as described herein enabled the determination of whether tungstate treatment would block growth by anaerobic respiration in vivo.

[9] = system: facultative anaerobic bacteria; assay: Microbial community profiling in mouse colitis models (16S rRNA gene sequences); assay type: in vivo; conditions: mice with severe colitis (DSS or oxazolone) treated with tungstate
From the text: To investigate whether changes in the microbial communities that develop during inflammation are due to anaerobic respiration, the temporal dynamics of the entire gut community can be monitored in mouse models of colitis. In particular, colitis can be induced by DSS treatment or hapten-induced (oxazolone-treatment) in wild type and Nos2-deficient mice, including those that are additionally exposed to tungstate, AG, or NAC. The experiments can be performed as follows.
Wild type mice (C57BL/6) and Nos2-deficient mice are co-housed for two weeks to reduce the variation in the microbial community structure prior to inducing inflammation. Feces are collected from all animals for DNA isolation to establish a baseline of the microbiota composition at the beginning of the experiment. Six mice from each mouse strain (C57BL/6 mice or Nos2-deficient mice) are euthanized to isolate bacterial DNA from cecal and colon contents and to establish a baseline for inflammatory host responses using the methods described above (see, Section 5). Groups of mice from each mouse strain (e.g., C57BL/6 mice or Nos2-deficient mice) are treated with 4% DSS in drinking water or are “mock-treated” (i.e., mice will receive drinking water without DSS). […]
The development of intestinal inflammation is monitored using methods described above (see, Section 5). […]

nitrate reductase = assay: Nitrate reductase activity in E. coli Nissle 1917 cultures (modified Griess assay); assay type: cell-based; conditions: LB broth with 40 mM nitrate, microaerobic, 3 h at 37° C.; versus mock-treated cultures
From the text: In E. coli, the respiratory reductases for nitrate, DMSO and TMAO as well as the formate dehydrogenases FdnG and FdoG contain molybdenum (Mo) as a key catalyst for electron transfer reactions (7). The functions of FdnG and FdoG are linked to respiration, because these two formate dehydrogenases couple respiratory electron acceptors to the electron donor formate, a fermentation end product present in the large intestine. Formate dehydrogenases and respiratory reductases contain Mo within a molybdopterin cofactor. Tungsten (W) has chemical properties similar, but not identical, to Mo. […] To test whether the addition of W (as the soluble sodium salt Na2WO4; sodium tungstate) to bacterial growth media can inhibit anaerobic nitrate respiration, aliquots of LB broth supplemented with 40 mM nitrate and varying concentrations of tungstate were inoculated with the E. coli Nissle 1917 wild-type strain and incubated under microaerobic conditions for 3 h at 37° C. (3). Nitrate reductase activity was assayed using a modified Griess assay (9) (FIG. 9).

[10] = oral, 100 mg twice a day for 6 weeks, cited from earlier work
Kc [11] = assay: Kc transcript levels in the cecal mucosa of DSS-treated conventional mice (real-time PCR); assay type: in vivo; conditions: 4% DSS for 9 days
From the text: as §2, §3

[12] = sodium tungstate 0.2% in drinking water, DSS 2 or 3%, 5 days after inoculation

**Q.** Which “availability of nitrate/nitrite in the large bowel” value (nitrate/nitrite) does the source give for N=C(N)NN [AG, aminoguanidine] here?
**A.** Its value is “markedly reduced”.

**Q.** And the “fitness advantage conferred by nitrate respiration (competitive index)” value [1]?
**A.** The value was “abrogated the fitness advantage”.

**Q.** And the inflammation and morbidity [2]?
**A.** Its inflammation and morbidity is “intermediate effect”.

**Q.** Which results are given for CC(=O)N[C@@H](CS)C(=O)O [NAC, N-acetylcysteine]?
**A.** oxidative burst activity of neutrophils (neutrophils [3]): suppress the oxidative burst activity; inflammation and morbidity [2]: intermediate effect; concentration that almost completely inhibits the oxidative response of neutrophils to E. coli (neutrophils [4]): 76 mM

**Q.** Which results are given for [Na+].[Na+].[O]=[W](=[O])([O-])[O-] [sodium tungstate]?
**A.** transcript levels of Tnfa in the cecal mucosa (Tnfa): blunting of transcript levels; growth of AIEC by anaerobic respiration (AIEC strain LF82): reduction in the growth of AIEC; levels of pro-inflammatory cytokines (Kc transcript) (Kc [5]): did not reduce; body weight [6]: > 90 % of starting weight; overall pathology score of the cecal mucosa [7]: significant (P<0.05) reduction; absolute numbers of E. coli recovered from colon contents (bloom) ([8]; DSS+Na2WO4 versus DSS alone, FIG. 12B): prevented facultative anaerobic bacteria from blooming; competitive index (ratio of wild-type to moaA mutant) recovered from colon contents ([8]; DSS-induced colitis, drinking water with 2 g/l sodium tungstate (130 mg/kg/day)): both strains were recovered in equal numbers; recovery of wild-type versus moaA mutant from colon content [8, 12]: both strains were recovered at similar numbers; total number of E. coli indicator strains recovered from colon content [8, 12]: significantly diminished; inflammation and morbidity [2]: reducing inflammation and morbidity; increased abundance of facultative anaerobic bacteria associated with inflammation [9]: not observed; tungstate concentration at which nitrate reductase activity was significantly reduced (nitrate reductase): exceeding 10 ng/ml; body weight ([10]; human obesity): did not reduce body weight; safety parameters ([10]; human): not associated with abnormal safety parameters; induction of Kc in the cecal mucosa (Kc [11]): abrogated induction
